Data taken from patent US11058696B2, “Substituted bicyclic compounds” (BRISTOL-MYERS SQUIBB COMPANY, priority 2014, dated 2021).

How the values were obtained:
[1] = molecular target: S1P1 (membranes prepared from S1P1/CHO cells) (Homo sapiens (Human), UniProt P21453); assay: Receptor [35S] GTPγS Binding Assay (S1P1 GTPγS); type: biochemical; settings: GTPγS S1P1 versus GTPγS S1P3 binding assays
Procedure: Receptor [^35S] GTPγS Binding Assays: (S1P1 GTPγS/S1P3 GTPγS)
Compounds were loaded in a 384 Falcon v-bottom plate (0.5 μl/well in a 11 point, 3-fold dilution). Membranes prepared from S1P1/CHO cells or EDG3-Gal5-bla HEK293T cells (EDG3 equivalent S1P3) were added to the compound plate ([…], final protein 3 μg/well) with MULTIDROP®. [^35S]GTP (1250 Ci/mmol, Perkin Elmer) was diluted in assay buffer: 20 mM HEPES, pH7.5, 10 mM MgCl2, 150 mM NaCl, 1 mM EGTA (ethylene glycol tetraacetic acid), 1 mM DTT (Dithiothreitol), 10 μM GDP, 0.1% fatty acid free BSA, and 10 μg/ml Saponin to 0.4 nM. 40 μl of the [^35S] GTP solution was added to the compound plate with a final concentration of 0.2 nM. The reaction was kept at room temperature for 45 min. At the end of incubation, all the mixtures in the compound plate were transferred to Millipore 384-well FB filter plates via the VELOCITY11® Vprep liquid handler. The filter plate was washed with water 4 times by using the manifold Embla plate washer and dried at 60° C. for 45 min. MicroScint 20 scintillation fluid (30 μl) was added to each well for counting on the Packard TOPCOUNT®.
A larger value for the GTPγS S1P3 EC50 value indicated less activity in the GTPγS S1P3 binding assay.

[2] = tested on: spontaneous lupus, anti-dsDNA antibodies and kidney histology; assay: MRL/lpr Lupus Model; type: in vivo; settings: MRL/lpr mice, p.o. daily
Text: MRL/lpr Lupus Model: MRL/lpr is a spontaneous model of lupus. Male MRL/lpr mice (Jackson Laboratory) at the age of 12-14 weeks were enrolled for the study (N=12). […] Mice were bled every other week for anti-dsDNA antibodies measured by ELISA using pooled serum from diseased MRL/lpr mice as a positive comparator in each assay. The data were expressed in arbitrary units as a ratio of the titer of the test serum to the titer of the pooled MRL/lpr immune serum. At the end of study, one kidney was collected into 10% neutral buffered formalin and ZincTris fixatives. Fixed tissues were processed into paraffin blocks, sectioned at 3 μm, and stained with H&E or PASH. Kidney sections were graded using following criteria: Glomerular Damage: 1. Mesangial matrix thickening, cell proliferation, 2. Crescent formation, cellular deposits/casts in Bowman's space, 3. Cellular infiltration, mononuclear cells in glomerular tufts, 4. Fibrosis of Bowman's capsule. Tubular damage: 1. Infiltration of mononuclear cells, 2. Severity of tubular damage, 3. Protein casts. Tubulo-interstitial damage: 1. Fibrosis, 2. Infiltration of mononuclear cells. Each subcategory was assigned a score from 0-4, with the scores for glomerular indices representing the mean from 20 glomeruli per kidney. The total score for each mouse was the sum of the above 9 subcategories, with the highest possible score=36.

Chain of S1P1 (membranes prepared from S1P1/CHO cells) (P21453 whole entry): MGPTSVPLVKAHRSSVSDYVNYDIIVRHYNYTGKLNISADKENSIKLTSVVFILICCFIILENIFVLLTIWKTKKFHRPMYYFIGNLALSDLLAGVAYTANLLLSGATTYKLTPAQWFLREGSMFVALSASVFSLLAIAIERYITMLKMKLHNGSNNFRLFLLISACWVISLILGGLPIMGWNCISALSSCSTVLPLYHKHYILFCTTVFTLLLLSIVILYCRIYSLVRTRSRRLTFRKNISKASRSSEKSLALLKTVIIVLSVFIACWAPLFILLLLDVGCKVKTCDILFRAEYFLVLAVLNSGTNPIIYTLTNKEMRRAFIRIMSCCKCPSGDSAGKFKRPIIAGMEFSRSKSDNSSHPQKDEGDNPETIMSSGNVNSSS

| Compound | activity as an agonist of S1P1 and selectivity over S1P3 [1] | inhibition of disease progression as measured by anti-dsDNA titers and kidney histology [2] |
| --- | --- | --- |
| COCCCCCC1CCc2cc([C@H]3CC[C@](N)(COP(=O)(O)O)C3)ccc2C1 (single isomer, unassigned) [Example 689] | possessed activity as an agonist of S1P1 and is selective over S1P3 | – |
| COc1ccccc1CC[C@@H]1CCc2cc([C@H]3CC[C@](N)(CO)C3)ccc2C1 [Example 681, ((1R,3S)-1-amino-3-((S)-6-(2-methoxyphenethyl)-5,6,7,8-tetrahydronaphthalen-2-yl)cyclopentyl)methanol] | – | showed inhibition of disease progression |
